According to patent publication US20010006942A1, “Chemokine receptor peptide vaccines for treatment and prevention of diabetes” (priority 1998, published 2001):
Ends that are not written are not given here.

Tests used:
[1] = system: anti-CXCR3 antibody; experiment: ELISA binding of receptor-derived peptides to anti-CXCR3 antibody; set-up: species or system mouse; conditions: peptide coated on plate, antibody 0.5 μg/well, 2 hours
Procedure: The ability of these receptor-derived peptides to bind anti-CXCR3 antibody was evaluated using a standard ELISA format. The peptides were dissolved in 0.1 M bicarbonate buffer and coated on a 96 well ELISA plate overnight. The excess peptides were removed and nonspecific binding sites in the wells were blocked by 0.1 % bovine serum albumin. Anti-CXCR3 antibody (0.5 μg/well) was added to these wells and incubated for 2 hours. Excess antibody was removed by washing with PBS. HRP conjugated goat anti-mouse antibody was used as secondary antibody for detection. […] Further support for the conclusion that anti-CXCR3 antibody bound two of the seven receptor-derived peptides was provided by FACS analysis of the same interactions.

[2] = system: CXCR3 cell line transfectant; experiment: FACS analysis: blocking of anti-CXCR3 antibody binding to CXCR3 transfectant; format: cell-based, human
[3] = system: human CXCR3 SP-4-1 peptide; experiment: serum ELISA for antibody response to SP4-1 peptide in vaccinated mice; format: in vivo; conditions: serum of vaccinated SJL mice, bled week 0 and week 5, ELISA
Procedure: The mice were bled at week 0 and week 5 and serum was tested by ELISA for the presence of antibodies against the human CXCR3 SP-4-1 peptide. Briefly, the SP4-1 peptide dissolved in 0.1 M sodium bicarbonate buffer was plated on a 96-well ELISA plate overnight. The nonspecific binding sites on the plate were coated with 0.1% bovine serum albumin solution in PBS. The wells were washed and serum (diluted in PBS) was added to the wells and incubated at room temperature for 1.5 hours. The wells were then washed and HRP conjugated anti-mouse immunoglobulin antibody was used to detect the presence of anti-SP4-1 antibodies).

[4] = system: EAE; experiment: prevention of EAE in mice by peptide vaccination; conditions: SP4-1 with CFA s.c. at 21 and 14 days before induction of EAE with PLP 139-151, SJL mice
Procedure: SJL mice (6-8 weeks old) were obtained from Jackson Laboratories. They were kept in quarantine for two weeks. […] For the experiments, induction of the disease is considered Day 0.
The emulsion was taken in 1 ml syringe (needed 2 syringes) fitted with a 25 gauge needle. Each mouse was given 100 μl of the emulsin under each flank near the hind legs by subcutaneous injection (total volume per mouse=200 μl, total peptide per mouse=200 μg).
One ml of PBS and 1 ml of CFA were mixed and sonicated for 5 seconds and the emulsin is drawn into a 1 ml syringe fitted with a 25 gauge needle. Each mouse was given 100 μl of this emulsion under each flank near hind legs by subcutaneous injection (total volume of CFA per mouse=200 μl).
To an aqueous solution of peptide (4 mg per ml in PBS) equal volume of CFA was added and the mixture was sonicated for 5 seconds. The emulsion was drawn in a 1 ml syringe fitted with a 25 gauge needle and subcutaneously injected (200 μl total per mouse) in mice at the foot pad and back.

[5] = target: T1, human CXCR3 (CXCR3-NSO transfectants) (Homo sapiens, UniProt P49682); experiment: microphysiometer bioassay for CXCR3 activation (extracellular acidification rate); format: cell-based; conditions: 1, 5, 10 mglml ligand pumped for 10 min
T1 construct: expressed in transfected cells
T1 sequence (P49682 1-368): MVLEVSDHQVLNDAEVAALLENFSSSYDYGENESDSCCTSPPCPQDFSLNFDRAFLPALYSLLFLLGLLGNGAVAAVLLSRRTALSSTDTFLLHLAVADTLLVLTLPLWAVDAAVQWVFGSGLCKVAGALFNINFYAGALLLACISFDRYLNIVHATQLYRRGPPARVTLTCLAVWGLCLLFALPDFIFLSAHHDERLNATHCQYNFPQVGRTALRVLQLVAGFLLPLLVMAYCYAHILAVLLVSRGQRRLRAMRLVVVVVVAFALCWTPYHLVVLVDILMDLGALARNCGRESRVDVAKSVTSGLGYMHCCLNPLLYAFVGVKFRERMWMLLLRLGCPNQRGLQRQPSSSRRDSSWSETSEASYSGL
Procedure: (§1) 5X10^5 CXCR3-NSO transfectant cells and untransfected “BONZO-NSO” cells (negative control) were spotted in the microphysiometer chambers along with agarose and 1, 5, 10 […] anti-CXCR3 (FIG 1a) or IP-10 (FIG 1b) was pumped for 10 min. […] The arrow indicates the time that ligands were added to the cells.
A stable line transfectant of NSO-1 cells expressing the cDNA for human CXCR3 was prepared according to standard techniques. The surface expression of hu-CXCR3 on the transfectants compared to untransfected parent NSO-1 cells was confirmed by FACS staining using mouse anti-human CXCR3 monoclonal antibody (R&D systems).
(§2) To establish a bioassay for CXCR3 activation, the CXCR3 transfectant cells were cultured with either human IP-10, or the mouse anti-human CXCR3 antibody, and the physiological response of the cells was measured using a microphysiometer. This machine measures changes in the pH of the extracellular medium of the cell cultures which result from ligand receptor binding on the cell surface. These extracellular acidification rate measurements have previously been used as markers of antigen specific T cell activation and T cell epitope identification. The current assay is used to provide a biological read out for the identification of chemokine or chemokine receptor peptides involved in binding to IP- 10 or agonistic anti-CXCR3 antibody.

[6] = system: untransfected NSO-1 cells; experiment: microphysiometer acidification rate, untransfected negative control cells; format: cell-based; conditions: untransfected NSO-1 (BONZO-NSO) cells
Procedure: as §1, §2

Row | Substance | binding to anti-CXCR3 antibody [1] | inhibition of binding of anti-CXCR3 antibody to CXCR3 transfectants [2] | antibody response against SP4-1 peptide [3] | mice showing no clinical symptoms of EAE [4] | acidification rate changes [5] | acidification rate changes [6] | acidification rate changes ([6]; listed as IP-10)
1 | DAAVQWVFGSGLCKV-NH2 [SP-2-1] | nonbinding | failed to inhibit binding |  |  |  |  | 
2 | DILMDLGALARNCGRESRVDVAKS-NH2 [SP-4-1] | substantial binding | potently blocked binding | show an antibody response against this peptide | 7 out of 8 |  |  | 
3 | PPCPQDFSLNFDRAFLPA-NH2 [SP-1-3] | substantial binding | partial inhibition |  |  |  |  | 
4 | human IP-10: human chemokine IP-10, ligand of CXCR3 |  |  |  |  | substantial acidification rate changes | no change in acidification rate | did not show any change in acidification rate changes
